# Entries after “also recorded” stand apart in the source; their conditions may differ.
# How the values were obtained:
# K562-Lucena 1 [1] = experiment: cells; settings: Homo sapiens, K562-Lucena 1, 72 h, read-out: reduction in the viability
# Description: (§3) Cell viability was evaluated through the MTT method, after 72 hours of incubation with TKIs. MTT is a colorimetric method which measures mitochondrial dehydrogenase activity, based on the ability of living cells to reduce the salt, 3-(4,5-dimethylazole-2-yl)-2,5-diphenyltetrazolium bromide in the product formazan.
# (§4) Cells were cultured in plates of 96 wells at the concentration of 1×10^4 cells/well in 200 μl of RPMI supplemented with 10% fetal bovine serum. 10 μl of each of the novel TKIs, or imatinib, previously diluted in RPMI medium, were added in different concentrations, and no molecule or imatinib was added in the control group. The plates were kept in a humid atmosphere containing 5% CO2 at 37° C. for 72 hours. Four hours before completion of the established time (72 hours), 20 μl of MTT (Sigma) (final concentration of 10 μg/ml) were added. The plates were kept in the oven for the remaining four hours. 180 μl of the supernatant were removed from each well, and then 150 μl of dimethylsulfoxide (DMSO; Sigma) were added, homogenizing thoroughly for complete dissolution of the salt crystals formed by mitochondrial metabolism, thus resulting in a coloration. […] The 96-well plate was read by the spectrophotometer (Spectramax Plus 384), using a wavelength of 570 nm. The results were analyzed through the absorbance of each well. The viability percentage was obtained through the following formula: [(Absorbance of cells treated with TKIs or imatinib/Absorbance of untreated cells)×100]. All the tests were performed in three different occasions. Three experiments, at least, independent, were carried out and triplicates were made for each concentration.
# (§5) The compounds were tested for their cytotoxicity in this lineage.
# (§6) The viability of the Lucena cell lineage was evaluated after 72 h of incubation with the novel compounds, through the MTT assay.
# K562-Lucena 1 [2] = settings: MTT, 72 h; for viability reduction compared between K562 and Lucena lineages: FIG. 2A
# Description: as §3, §4, §5, §6
# CML = CML patients treated with imatinib (Hunter, 2007); cited from earlier work
# K562 [3] = experiment: MTT cell viability, K562 lineage; settings: for Cell viability percentage: average of three independent experiments;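 as to all read-outs here: K562 cells (BCR-ABL expressing, CML derived), MTT formazan absorbance after 72 h exposure, compared with untreated control cells, at least three independent experiments run in triplicate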
# Description: as §3
# Cells were cultured in plates of 96 wells at the concentration of 1×10^4 cells/well in 200 μl of RPMI supplemented with 10% fetal bovine serum. 10 μl of each of the novel TKIs, or imatinib, previously diluted in RPMI medium, were added in different concentrations, and no molecule or imatinib was added in the control group. The plates were kept in a humid atmosphere containing 5% CO2 at 37° C. for 72 hours. Four hours before completion of the established time (72 hours), 20 μl of MTT (Sigma) (final concentration of 10 μg/ml) were added. The plates were kept in the oven for the remaining four hours. 180 μl of the supernatant were removed from each well, and then 150 μl of dimethylsulfoxide (DMSO; Sigma) were added, homogenizing thoroughly for complete dissolution of the salt crystals formed by mitochondrial metabolism, thus resulting in a coloration. […] The 96-well plate was read by the spectrophotometer (Spectramax Plus 384), using a wavelength of 570 nm. The results were analyzed through the absorbance of each well. The viability percentage was obtained through the following formula: [(Absorbance of cells treated with TKIs or imatinib/Absorbance of untreated cells)×100]. All the tests were performed in three different occasions. Three experiments, at least, independent, were carried out and triplicates were made for each concentration. By means of this method, we detected the cell inhibition percentage of each new molecule and we compared it with the percentage of viability reduction caused by imatinib.
# K562 [4] = experiment: Cell cycle and DNA fragmentation analysis (propidium iodide, flow cytometry), K562; format: cell-based, human; settings: K562, 24 h
# Description: (§1) The analysis of the impact of the new compounds on the phases of the cell cycle and on the induction of DNA fragmentation were carried out by DNA labeling with the fluorochrome propidium iodide. The assays were analyzed by flow cytometry and the results were analyzed in relation to the control (cells without treatment).
# (§2) The induction of DNA fragmentation by the new compounds and by imatinib was assessed by flow cytometry. The analysis of cell cycle and DNA fragmentation was carried out upon 24 hours of incubation with the compounds.
# K562 [5] = experiment: Annexin V/propidium iodide cell death assay by flow cytometry, K562; settings: K562, 24 h, 0.25-1.0 μM
# Description: (§7) Cells were incubated for 24 hours with or without addition of the novel compounds. The index of apoptosis induced by the novel compounds was obtained as follows: percentage of cells in induced apoptosis (treated with the drugs) minus the percentage of cells in spontaneous apoptosis (not treated with the drugs) (Vasconcelos et aL, 2007; Vasconcelos et al., 2011).
# (§8) To analyze the apoptosis induction potential by the new imatinib derivatives, annexin V/propidium iodide assay was used by flow cytometry.
# (§9) To analyze death by apoptosis, the cells were incubated for 24 hours instead of 72 hours.
# (§10) Cells without addition of any drug were used for the evaluation of spontaneous death. Cells incubated with DMSO (used to solubilize the compounds derived from imatinib) were used to discard the effect of this substance on cell death induction.
# K562-Lucena 1 [6] = experiment: Annexin V/propidium iodide cell death assay by flow cytometry, K562-Lucena 1; settings: for induction of cell death (annexin-positive and annexin/PI-positive cells): Lucena, 0.25-1.0 μM
# Description: as §7, §8, §9, §10
# K562-Lucena 1 [7] = experiment: Cell cycle and DNA fragmentation analysis (propidium iodide, flow cytometry), K562-Lucena 1; format: cell-based, human; settings: 24 h
# Description: as §1, §2
# [8] = Homo sapiens, K562, 72 h, read-out: Cell viability percentage
SMILES,increase in the number of cells in G0/G1 phase (halt in G0/G1) (K562 [4]),induction of cell death (annexin-positive and annexin/PI-positive cells) (K562 [5]),viability reduction compared between K562 and Lucena lineages (K562-Lucena 1 [2]),induction of cell death (annexin-positive and annexin/PI-positive cells) (K562-Lucena 1 [6]; 24 h),"Cell viability percentage (K562 [3]; K562, MTT, 72 h, 0.05 μM) [%]","Cell viability percentage (K562 [3]; K562, MTT, 72 h, 0.1 μM) [%]","Cell viability percentage (K562 [3]; K562, MTT, 72 h, 0.25 μM) [%]","Cell viability percentage (K562 [3]; K562, MTT, 72 h, 0.5 μM) [%]","Cell viability percentage (K562 [3]; K562, MTT, 72 h, 1.0 μM) [%]","Cell viability percentage (K562 [3]; K562, MTT, 72 h, 1.5 μM) [%]","Cell viability percentage (K562 [3]; K562, MTT, 72 h, 2.0 μM) [%]","Cell viability percentage (K562 [3]; K562, MTT, 72 h, 2.5 μM) [%]","Cell viability percentage (K562 [3]; K562, MTT, 72 h, 3.0 μM) [%]","Cell viability percentage (K562 [3]; K562, MTT, 72 h, 4.0 μM) [%]","Cell viability percentage (K562 [3]; K562, MTT, 72 h, 5.0 μM) [%]",also measured
"Cc1ccc(NC(=O)c2ccc(CN3CCN(C)CC3)cc2)cc1Nc1nccc(-c2cccnc2)n1 [Imatinib, imatinib, reference compound]",about 10%,,,,,,,,,,,,,,,cytotoxicity at 0.25 µM (K562-Lucena 1 [1]): ~60%; concentration from which viability reduction reached a plateau (K562-Lucena 1 [2]; Lucena): 1.5 µM; patients reaching hematological remission (CML): ~100%; viability at 0.05 µM (K562 [3]; [8]): 93.5%; viability at 0.1 µM (K562 [3]; [8]): 63.4%; viability at 0.25 µM (K562 [3]; [8]): 54.5%; viability at 0.5 µM (K562 [3]; [8]): 20.1%; viability at 1 µM (K562 [3]; [8]): 16.3%; viability at 1.5 µM (K562 [3]; [8]): 14.3%; viability at 2 µM (K562 [3]; [8]): 19.8%; viability at 2.5 µM (K562 [3]; [8]): 19.4%; viability at 3 µM (K562 [3]; [8]): 14.8%; viability at 4 µM (K562 [3]; [8]): 13.5%; viability at 5 µM (K562 [3]; [8]): 15%; DNA fragmentation (K562 [4]): induced DNA fragmentation
"C[C@H]1[C@@H](OC(=O)CCC(=O)O)O[C@@H]2O[C@@]3(C)CC[C@H]4[C@H](C)CC[C@@H]1[C@@]24OO3.Cc1ccc(N)cc1Nc1nccc(-c2cccnc2)n1 [Compound 04, 4-methyl-3-((4-(pyridin-3-yl)pyrimidin-2-yl)amino)benzenaminium-4-oxo-4-(((3R,5aS,6R,8aS,9R,10R,12R,12aR)-3,6,9-trimethyldecahydro-3H-3,12-epoxy[1,2]dioxepin[4,3-yl]isochromen-10-yl)oxy)butanoate]",,"induced cell death, probably by apoptosis",more effective in the Lucena lineage; also recorded: greater percentage of reduction of cell viability than the K562 lineage,"induced cell death, probably by apoptosis",97.54,86.68,87.20,79.53,85.68,69.52,56.13,53.28,48.95,48.17,47.69,"cell death rate compared with imatinib (K562-Lucena 1 [6]; Lucena lineage): higher; reduction of viability (K562 [3]; K562, MTT, 72 h, 2.5 μM): 50%; alterations in the cell cycle (K562 [4]): did not foster alterations in the cell cycle"
"C[C@H]1[C@@H](OC(=O)CCC(=O)O)O[C@@H]2O[C@@]3(C)CC[C@H]4[C@H](C)CC[C@@H]1[C@@]24OO3.Cc1ccc(NC(=O)c2ccc(CN3CCN(C)CC3)cc2)cc1Nc1nccc(-c2cccnc2)n1 [Compound 03, N-(2-methyl-5-(4-((4-methylpiperazine-1-yl)methyl)benzamide)phenyl)-4-(pyridin-3-yl)pyrimidin-2-aminium-4-oxo-4-(((3R,5aS,6R,8aS,9R,10R,12R,12aR)-3,6,9-trimethyldecahydro-3H-3, 12-epoxy[1,2]dioxepin[4,3-yl]isochromen-10-yl)oxy)butanoate]",about 10%,"induced cell death, probably by apoptosis",reduced the viability in the two lineages in a similar way,"induced cell death, probably by apoptosis",77.68,82.43,43.45,20.16,18.11,16.73,15.12,17.89,16.69,16.51,15.76,"DNA fragmentation (K562-Lucena 1 [7]): induced DNA fragmentation; cell death rate in Lucena compared with K562 (K562-Lucena 1 [6]; 24 h): greater cell death rate than the K562 lineage; reduction in cell viability (K562 [3]; K562, MTT, 72 h, 0.25 μM): about 50%"

# — patent US20170226123A1, “Phenylaminopyrimidine-Derived Compounds, Method for Obtaining, Using Said Compounds in the Treatment of Cancer, and Treatment Methods” (Fundacao Oswaldo Cruz, priority 2014, published 2017)
